Measurements taken from patent publication US20240092784A1, “CONDENSED HETEROCYCLIC COMPOUND” (NISSAN CHEMICAL CORPORATION, priority 2020, published 2024).

Target: human SPR (Homo sapiens (Human), UniProt P35270)
Test: Evaluation Example 2: Measurement of human SPR inhibitory activity (seven concentrations, sepiapterin absorbance at 420 nm)
Assay type: biochemical
Settings: Evaluation Example 2, seven concentrations 0.14 nM to 100 nM, 240 minutes at room temperature, read-out: IC50
Method in brief: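 His-tagged full-length human SPR (1-261) was expressed in E. coli and the tag removed. Enzyme at 150 ng/mL in 100 mM Tris-HCl pH 7.5/0.01% BSA was mixed with compound (0.14–100 nM, seven points), 120 μM sepiapterin and 160 μM NADPH, both as added-solution concentrations. After 240 min at room temperature, remaining sepiapterin was read at 420 nm to give percent inhibition.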

Chain of human SPR (P35270 whole entry): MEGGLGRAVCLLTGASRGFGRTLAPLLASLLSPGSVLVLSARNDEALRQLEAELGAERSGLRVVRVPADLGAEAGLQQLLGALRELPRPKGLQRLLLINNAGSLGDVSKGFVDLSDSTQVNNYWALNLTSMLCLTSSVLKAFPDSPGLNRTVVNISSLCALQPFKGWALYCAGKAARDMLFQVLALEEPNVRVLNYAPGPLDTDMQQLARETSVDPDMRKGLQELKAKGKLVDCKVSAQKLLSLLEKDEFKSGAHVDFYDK

Q: Which IC50 does the source give for `CCc1nn2c(O)c(C(=O)NC3CC3)c(=O)n(CC(C)C)c2c1/C=C/C(=O)N1CCOC[C@@H]1C` [Synthesis Example 653, (S,E)-N-Cyclopropyl-2-ethyl-7-hydroxy-4-isobutyl-3-(3-(3-methylmorpholino)-3-oxoprop-1-en-1-yl)-5-oxo-4,5-dihydropyrazolo[1,5-a]pyrimidine-6-carboxamide] here?
A: 0.74 nM

Q: How did the IC50 turn out when `CCc1nn2c(O)c(C(=O)NC3CC3)c(=O)n(CC(C)C)c2c1/C=C/C(=O)N1CCC[C@@H]1C(C)(C)O` [Synthesis Example 654, (R,E)-N-Cyclopropyl-2-ethyl-7-hydroxy-3-(3-(2-(2-hydroxypropan-2-yl)pyrrolidin-1-yl)-3-oxoprop-1-en-1-yl)-4-isobutyl-5-oxo-4,5-dihydropyrazolo[1,5-a]pyrimidine-6-carboxamide] was run?
A: 0.95 nM

Q: `Cc1nn2c(O)c(C(=O)NC3CC3)c(=O)n(CC(C)(C)C)c2c1/C=C/C(=O)N1CCC[C@@H]1C(C)(C)O` [Synthesis Example 655, (R,E)-N-Cyclopropyl-7-hydroxy-3-(3-(2-(2-hydroxypropan-2-yl)pyrrolidin-1-yl)-3-oxoprop-1-en-1-yl)-2-methyl-4-neopentyl-5-oxo-4,5-dihydropyrazolo[1,5-a]pyrimidine-6-carboxamide] was tested. Which IC50 did it give?
A: 1.05 nM

Q: How did the IC50 turn out when `Cc1nn2c(O)c(C(=O)NC3CC3)c(=O)n(CC(C)C)c2c1/C=C/C(=O)N1CCOCC1(C)C` [Synthesis Example 656, (E)-N-Cyclopropyl-3-(3-(3,3-dimethylmorpholino)-3-oxoprop-1-en-1-yl)-7-hydroxy-4-isobutyl-2-methyl-5-oxo-4,5-dihydropyrazolo[1,5-a]pyrimidine-6-carboxamide] was run?
A: 1.15 nM

Q: With `Cc1nn2c(O)c(C(=O)NC3CC3)c(=O)n(CC(C)C)c2c1/C=C/C(=O)N1CCOC(C)(C)C1` [Synthesis Example 657, (E)-N-Cyclopropyl-3-(3-(2,2-dimethylmorpholino)-3-oxoprop-1-en-1-yl)-7-hydroxy-4-isobutyl-2-methyl-5-oxo-4,5-dihydropyrazolo[1,5-a]pyrimidine-6-carboxamide] as the compound, how does the IC50 read?
A: 0.92 nM

Q: `Cc1nn2c(O)c(C(=O)NC3CC3)c(=O)n(CC(C)C)c2c1/C=C/C(=O)N1C2CCC1COC2` [Synthesis Example 658, (E)-3-(3-(3-Oxa-8-azabicyclo[3.2.1]octan-8-yl)-3-oxoprop-1-en-1-yl)-N-cyclopropyl-7-hydroxy-4-isobutyl-2-methyl-5-oxo-4,5-dihydropyrazolo[1,5-a]pyrimidine-6-carboxamide] was tested. Which IC50 did it give?
A: 0.78 nM

Q: How did the IC50 turn out when `CC[C@H]1COCCN1C(=O)/C=C/c1c(C)nn2c(O)c(C(=O)NC3CC3)c(=O)n(CC(C)C)c12` [Synthesis Example 659, (S,E)-N-Cyclopropyl-3-(3-(3-ethylmorpholino)-3-oxoprop-1-en-1-yl)-7-hydroxy-4-isobutyl-2-methyl-5-oxo-4,5-dihydropyrazolo[1,5-a]pyrimidine-6-carboxamide] was run?
A: 0.83 nM

Q: How did the IC50 turn out when `Cc1nn2c(O)c(C(=O)NC3CC3)c(=O)n(CC(C)C)c2c1/C=C/C(=O)N1CCCC12CCCN(C(=O)OC(C)(C)C)C2` (centres unmarked) [Synthesis Example 660, Tert-butyl (E)-1-(3-(6-(cyclopropylcarbamoyl)-7-hydroxy-4-isobutyl-2-methyl-5-oxo-4,5-dihydropyrazolo[1,5-a]pyrimidin-3-yl)acryloyl)-1,7-diazaspiro[4.5]decane-7-carboxylate] was run?
A: 3.97 nM

Q: With `Cc1nn2c(O)c(C(=O)NC3CC3)c(=O)n(CC(C)C)c2c1/C=C/C(=O)N1CCCC12CCN(C(=O)OC(C)(C)C)CC2` [Synthesis Example 661, Tert-butyl (E)-1-(3-(6-(cyclopropylcarbamoyl)-7-hydroxy-4-isobutyl-2-methyl-5-oxo-4,5-dihydropyrazolo[1,5-a]pyrimidin-3-yl)acryloyl)-1,8-diazaspiro[4.5]decane-8-carboxylate] as the compound, how does the IC50 read?
A: 2.48 nM

Q: `Cc1nn2c(O)c(C(=O)NC3CC3)c(=O)n(CC(C)C)c2c1/C=C/C(=O)N1CCCC12CCCN(C)C2` (centres unmarked) [Synthesis Example 662, (E)-N-Cyclopropyl-7-hydroxy-4-isobutyl-2-methyl-3-(3-(7-methyl-1,7-diazaspiro[4.5]decan-1-yl)-3-oxoprop-1-en-1-yl)-5-oxo-4,5-dihydropyrazolo[1,5-a]pyrimidine-6-carboxamide] was tested. Which IC50 did it give?
A: 1.08 nM

Q: How did the IC50 turn out when `CC(=O)N1CCCC2(CCCN2C(=O)/C=C/c2c(C)nn3c(O)c(C(=O)NC4CC4)c(=O)n(CC(C)C)c23)C1` (centres unmarked) [Synthesis Example 663, (E)-3-(3-(7-Acetyl-1,7-diazaspiro[4.5]decan-1-yl)-3-oxoprop-1-en-1-yl)-N-cyclopropyl-7-hydroxy-4-isobutyl-2-methyl-5-oxo-4,5-dihydropyrazolo[1,5-a]pyrimidine-6-carboxamide] was run?
A: 1.41 nM

Q: For `Cc1nn2c(O)c(C(=O)NC3CC3)c(=O)n(CC(C)C)c2c1/C=C/C(=O)N1CCCC12CCN(C)CC2` [Synthesis Example 664, (E)-N-Cyclopropyl-7-hydroxy-4-isobutyl-2-methyl-3-(3-(8-methyl-1,8-diazaspiro[4.5]decan-1-yl)-3-oxoprop-1-en-1-yl)-5-oxo-4,5-dihydropyrazolo[1,5-a]pyrimidine-6-carboxamide], which IC50 is on record?
A: 0.77 nM

Q: Which IC50 does the source give for `CC(=O)N1CCC2(CCCN2C(=O)/C=C/c2c(C)nn3c(O)c(C(=O)NC4CC4)c(=O)n(CC(C)C)c23)CC1` [Synthesis Example 665, (E)-3-(3-(8-Acetyl-1,8-diazaspiro[4.5]decan-1-yl)-3-oxoprop-1-en-1-yl)-N-cyclopropyl-7-hydroxy-4-isobutyl-2-methyl-5-oxo-4,5-dihydropyrazolo[1,5-a]pyrimidine-6-carboxamide] here?
A: 0.92 nM

Q: Which IC50 does the source give for `Cc1nn2c(O)c(C(=O)NC3CC3)c(=O)n(CC(C)C)c2c1/C=C/C(=O)N1CCCC12CCN(CC(F)(F)F)CC2` [Synthesis Example 666, (E)-N-Cyclopropyl-7-hydroxy-4-isobutyl-2-methyl-5-oxo-3-(3-oxo-3-(8-(2,2,2-trifluoroethyl)-1,8-diazaspiro[4.5]decan-1-yl)prop-1-en-1-yl)-4,5-dihydropyrazolo[1,5-a]pyrimidine-6-carboxamide] here?
A: 2.14 nM

Q: For `CCN1CCC2(CCCN2C(=O)/C=C/c2c(C)nn3c(O)c(C(=O)NC4CC4)c(=O)n(CC(C)C)c23)CC1` [Synthesis Example 667, (E)-N-Cyclopropyl-3-(3-(8-ethyl-1,8-diazaspiro[4.5]decan-1-yl)-3-oxoprop-1-en-1-yl)-7-hydroxy-4-isobutyl-2-methyl-5-oxo-4,5-dihydropyrazolo[1,5-a]pyrimidine-6-carboxamide], which IC50 is on record?
A: 0.94 nM

Q: With `Cc1nn2c(O)c(C(=O)NC3CC3)c(=O)n(CC(C)C)c2c1/C=C/C(=O)N1CCc2cc(F)ccc21` [Synthesis Example 668, (E)-N-Cyclopropyl-3-(3-(5-fluoroindolin-1-yl)-3-oxoprop-1-en-1-yl)-7-hydroxy-4-isobutyl-2-methyl-5-oxo-4,5-dihydropyrazolo[1,5-a]pyrimidine-6-carboxamide] as the compound, how does the IC50 read?
A: 7.87 nM

Q: `Cc1nn2c(O)c(C(=O)NC3CC3)c(=O)n(CC(C)C)c2c1/C=C/C(=O)N1CCc2cc(C#N)ccc21` [Synthesis Example 669, (E)-3-(3-(5-Cyanoindolin-1-yl)-3-oxoprop-1-en-1-yl)-N-cyclopropyl-7-hydroxy-4-isobutyl-2-methyl-5-oxo-4,5-dihydropyrazolo[1,5-a]pyrimidine-6-carboxamide] was tested. Which IC50 did it give?
A: 1.84 nM

Q: For `Cc1nn2c(O)c(C(=O)NC3CC3)c(=O)n(CC(C)C)c2c1/C=C/C(=O)N1CCc2cc(Br)ccc21` [Synthesis Example 670, (E)-3-(3-(5-Bromoindolin-1-yl)-3-oxoprop-1-en-1-yl)-N-cyclopropyl-7-hydroxy-4-isobutyl-2-methyl-5-oxo-4,5-dihydropyrazolo[1,5-a]pyrimidine-6-carboxamide], which IC50 is on record?
A: 11.5 nM

Q: For `Cc1nn2c(O)c(C(=O)NC3CC3)c(=O)n(CC(C)C)c2c1/C=C/C(=O)N1CCN(C2CC(F)(F)C2)C[C@@H]1C` [Synthesis Example 671, (S,E)-N-Cyclopropyl-3-(3-(4-(3,3-difluorocyclobutyl)-2-methylpiperazin-1-yl)-3-oxoprop-1-en-1-yl)-7-hydroxy-4-isobutyl-2-methyl-5-oxo-4,5-dihydropyrazolo[1,5-a]pyrimidine-6-carboxamide], which IC50 is on record?
A: 1.49 nM

Q: Which IC50 does the source give for `Cc1nn2c(O)c(C(=O)NC3CC3)c(=O)n(CC(C)C)c2c1/C=C/C(=O)N1CCC(F)(F)CC1C` (centres unmarked) [Synthesis Example 672, (E)-N-Cyclopropyl-3-(3-(4,4-difluoro-2-methylpiperidin-1-yl)-3-oxoprop-1-en-1-yl)-7-hydroxy-4-isobutyl-2-methyl-5-oxo-4,5-dihydropyrazolo[1,5-a]pyrimidine-6-carboxamide] here?
A: 0.86 nM

Q: For `Cc1nn2c(O)c(C(=O)NC3CC3)c(=O)n(CC(C)C)c2c1/C=C/C(=O)N1CCC[C@@H]1c1ccccc1` [Synthesis Example 673, (R,E)-N-Cyclopropyl-7-hydroxy-4-isobutyl-2-methyl-5-oxo-3-(3-oxo-3-(2-phenylpyrrolidin-1-yl)prop-1-en-1-yl)-4,5-dihydropyrazolo[1,5-a]pyrimidine-6-carboxamide], which IC50 is on record?
A: 1.35 nM

Q: How did the IC50 turn out when `Cc1nn2c(O)c(C(=O)NC3CC3)c(=O)n(CC(C)C)c2c1/C=C/C(=O)N1CCC[C@H]1c1ccccc1` [Synthesis Example 674, (S,E)-N-Cyclopropyl-7-hydroxy-4-isobutyl-2-methyl-5-oxo-3-(3-oxo-3-(2-phenylpyrrolidin-1-yl)prop-1-en-1-yl)-4,5-dihydropyrazolo[1,5-a]pyrimidine-6-carboxamide] was run?
A: 1.36 nM

Q: Which IC50 does the source give for `Cc1nn2c(O)c(C(=O)NC3CC3)c(=O)n(CC(C)C)c2c1/C=C/C(=O)N1CCOc2cnccc21` [Synthesis Example 675, (E)-N-Cyclopropyl-3-(3-(2,3-dihydro-1H-pyrido[3,4-b][1,4]oxazin-1-yl)-3-oxoprop-1-en-1-yl)-7-hydroxy-4-isobutyl-2-methyl-5-oxo-4,5-dihydropyrazolo[1,5-a]pyrimidine-6-carboxamide] here?
A: 0.99 nM
